Measured values as given in PubChem BioAssay (NCI).
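Results reflect a 48-hour exposure of cells in 96-well plates to compound at five concentrations. TGI: total growth inhibition.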

Columns and labels:
Test in all cases: growth of human tumour cells (NCI), 48 h
[1] = tested on: K-562 leukemia
[2] = tested on: HCT-15 colon
[3] = tested on: RPMI-8226 leukemia
[4] = tested on: SN12C renal
[5] = tested on: CAKI-1 renal
[6] = tested on: HOP-62 NSCLC
[7] = tested on: NCI-H460 lung
[8] = tested on: HS 578T breast
[9] = tested on: SNB-19 CNS
[10] = tested on: SK-MEL-28 melanoma
[11] = tested on: NCI-H23 lung
[12] = tested on: HCC-2998 colon
[13] = tested on: MCF7 breast
[14] = tested on: SK-MEL-2 melanoma
[15] = tested on: M14 melanoma
[16] = tested on: PC-3 prostate
[17] = tested on: HCT-116 colon
[18] = tested on: MALME-3M melanoma
[19] = tested on: SNB-75 CNS
[20] = tested on: DU-145 prostate
[21] = tested on: BT-549 breast
[22] = tested on: OVCAR-5 ovarian
[23] = tested on: RXF 393 renal
[24] = tested on: SK-MEL-5 melanoma
[25] = tested on: OVCAR-3 ovarian
[26] = tested on: MDA-MB-435
[27] = tested on: T-47D breast
[28] = tested on: SR leukemia
[29] = tested on: IGROV1 ovarian
[30] = tested on: SK-OV-3 ovarian
[31] = tested on: NCI/ADR-RES ovarian
[32] = tested on: U251 CNS
[33] = tested on: COLO 205 colon
[34] = tested on: MDA-N
[35] = tested on: MOLT-4 leukemia
[36] = tested on: A498 renal
[37] = tested on: UO-31 renal
[38] = tested on: MDA-MB-231 breast
[39] = tested on: OVCAR-8 ovarian
[40] = tested on: KM12 colon
[41] = tested on: HOP-92 NSCLC
[42] = tested on: CCRF-CEM leukemia
[43] = tested on: NCI-H226 lung
[44] = tested on: NCI-H522 lung
[45] = tested on: HL-60(TB) leukemia
[46] = tested on: UACC-257 melanoma
[47] = tested on: SF-295 CNS
[48] = tested on: TK-10 renal
[49] = tested on: HT29 colon
[50] = tested on: SF-268 CNS
[51] = tested on: 786-0 renal
[52] = tested on: SF-539 CNS
[53] = tested on: UACC-62 melanoma
[54] = tested on: LOX IMVI melanoma
[55] = tested on: ACHN renal
[56] = tested on: OVCAR-4 ovarian
[57] = tested on: A549 NSCLC
[58] = tested on: SW-620 colon
[59] = tested on: EKVX NSCLC

Question: What does the source list for `O=C(C[C@H](NC(=O)OCc1ccccc1)C(=O)NC1Cc2ccccc2OC1=O)OCc1ccccc1` (stereo not given in full)?
Answer: TGI [1]: 49.2 µM; TGI [2]: > 100 µM; TGI [3]: > 100 µM; TGI [4]: > 100 µM; TGI [5]: > 100 µM; TGI [6]: > 100 µM; TGI [7]: > 100 µM; TGI [8]: > 100 µM; TGI [9]: > 100 µM; TGI [10]: > 100 µM; TGI [11]: > 100 µM; TGI [12]: 66.5 µM; TGI [13]: 80.6 µM; TGI [14]: > 100 µM; TGI [15]: > 100 µM; TGI [16]: 70.2 µM; TGI [17]: 76.3 µM; TGI [18]: > 100 µM; TGI [19]: > 100 µM; TGI [20]: > 100 µM; TGI [21]: > 100 µM; TGI [22]: > 100 µM; TGI [23]: > 100 µM; TGI [24]: > 100 µM; TGI [25]: > 100 µM; TGI [26]: > 100 µM; TGI [27]: > 100 µM; TGI [28]: > 100 µM; TGI [29]: > 100 µM; TGI [30]: > 100 µM; TGI [31]: > 100 µM; TGI [32]: > 100 µM; TGI [33]: > 100 µM; TGI [34]: > 100 µM; TGI [35]: > 100 µM; TGI [36]: > 100 µM; TGI [37]: > 100 µM; TGI [38]: 71.6 µM; TGI [39]: > 100 µM; TGI [40]: > 100 µM; TGI [41]: > 100 µM; TGI [42]: > 100 µM; TGI [43]: > 100 µM; TGI [44]: > 100 µM

Question: Which results are given for `CN(C)Cc1cc(N=Nc2cccc(Cl)c2)ccc1O`?
Answer: TGI [1]: 12.8 µM; TGI [45]: 37.4 µM; TGI [46]: 29.3 µM; TGI [2]: 20.5 µM; TGI [3]: 55.8 µM; TGI [4]: 95.3 µM; TGI [5]: 61.1 µM; TGI [47]: 27.8 µM; TGI [6]: 22.9 µM; TGI [7]: 26.4 µM; TGI [8]: 29.4 µM; TGI [9]: 51.3 µM; TGI [48]: 23.2 µM; TGI [10]: 26.9 µM; TGI [11]: 57.9 µM; TGI [12]: 27.9 µM; TGI [13]: 29 µM; TGI [15]: 25.5 µM; TGI [16]: 38.1 µM; TGI [17]: 52 µM; TGI [18]: 31.6 µM; TGI [19]: 39.1 µM; TGI [20]: 27.9 µM; TGI [21]: 34 µM; TGI [22]: 30.1 µM; TGI [23]: 20.8 µM; TGI [24]: 14.2 µM; TGI [25]: 28.9 µM; TGI [26]: 15.8 µM; TGI [49]: 33.7 µM; TGI [27]: 34 µM; TGI [50]: 40.3 µM; TGI [28]: 54.5 µM; TGI [51]: 27.4 µM; TGI [29]: 27.1 µM; TGI [30]: 37.9 µM; TGI [31]: 22.4 µM; TGI [32]: 33.1 µM; TGI [33]: 38.5 µM; TGI [34]: 23.9 µM; TGI [35]: 32.5 µM; TGI [36]: 23.8 µM; TGI [52]: 33 µM; TGI [37]: 23.3 µM; TGI [53]: 13.1 µM; TGI [38]: 36.7 µM; TGI [39]: 28.5 µM; TGI [54]: 16.6 µM; TGI [40]: 22 µM; TGI [55]: 13.5 µM; TGI [56]: 34.7 µM; TGI [41]: 41 µM; TGI [42]: 36.3 µM; TGI [57]: 32.2 µM; TGI [43]: 50.7 µM; TGI [44]: 23.9 µM; TGI [58]: 23.7 µM

Question: Which TGI [1] does the source give for `Nc1nc(N)c(Cn2ccnc2)c(=O)[nH]1` here?
Answer: > 100 µM

Question: And the TGI [46]?
Answer: > 100 µM

Question: What about the TGI [2] of the same compound?
Answer: > 100 µM

Question: What about the TGI [3] of the same compound?
Answer: > 100 µM

Question: And the TGI [4]?
Answer: > 100 µM

Question: And the TGI [5]?
Answer: > 100 µM

Question: And the TGI [47]?
Answer: > 100 µM

Question: What about the TGI [6] of the same compound?
Answer: > 100 µM

Question: And the TGI [7]?
Answer: > 100 µM

Question: And the TGI [8]?
Answer: > 100 µM

Question: What about the TGI [9] of the same compound?
Answer: > 100 µM

Question: What about the TGI [48] of the same compound?
Answer: > 100 µM

Question: What about the TGI [11] of the same compound?
Answer: > 100 µM

Question: What about the TGI [13] of the same compound?
Answer: > 100 µM

Question: And the TGI [14]?
Answer: > 100 µM

Question: What about the TGI [15] of the same compound?
Answer: > 100 µM

Question: And the TGI [16]?
Answer: > 100 µM

Question: What about the TGI [17] of the same compound?
Answer: > 100 µM

Question: What about the TGI [18] of the same compound?
Answer: > 100 µM

Question: And the TGI [19]?
Answer: > 100 µM

Question: And the TGI [20]?
Answer: > 100 µM

Question: And the TGI [21]?
Answer: > 100 µM

Question: And the TGI [22]?
Answer: > 100 µM

Question: What about the TGI [23] of the same compound?
Answer: > 100 µM

Question: And the TGI [24]?
Answer: > 100 µM

Question: And the TGI [25]?
Answer: > 100 µM

Question: And the TGI [26]?
Answer: > 100 µM

Question: And the TGI [49]?
Answer: > 100 µM

Question: What about the TGI [27] of the same compound?
Answer: > 100 µM

Question: What about the TGI [50] of the same compound?
Answer: > 100 µM

Question: What about the TGI [28] of the same compound?
Answer: > 100 µM

Question: And the TGI [51]?
Answer: > 100 µM

Question: What about the TGI [29] of the same compound?
Answer: > 100 µM

Question: What about the TGI [30] of the same compound?
Answer: > 100 µM

Question: And the TGI [31]?
Answer: > 100 µM

Question: And the TGI [32]?
Answer: > 100 µM

Question: What about the TGI [33] of the same compound?
Answer: > 100 µM

Question: And the TGI [34]?
Answer: > 100 µM

Question: What about the TGI [36] of the same compound?
Answer: > 100 µM

Question: What about the TGI [52] of the same compound?
Answer: > 100 µM

Question: What about the TGI [37] of the same compound?
Answer: > 100 µM

Question: What about the TGI [59] of the same compound?
Answer: > 100 µM

Question: What about the TGI [53] of the same compound?
Answer: > 100 µM

Question: What about the TGI [38] of the same compound?
Answer: > 100 µM

Question: And the TGI [39]?
Answer: > 100 µM

Question: And the TGI [54]?
Answer: > 100 µM

Question: What about the TGI [40] of the same compound?
Answer: > 100 µM

Question: And the TGI [55]?
Answer: > 100 µM

Question: And the TGI [56]?
Answer: > 100 µM

Question: And the TGI [41]?
Answer: > 100 µM

Question: And the TGI [57]?
Answer: > 100 µM

Question: And the TGI [43]?
Answer: > 100 µM

Question: What about the TGI [44] of the same compound?
Answer: > 100 µM

Question: Which results are given for `O=Cc1cc([N+](=O)[O-])no1`?
Answer: TGI [1]: 38.6 µM; TGI [45]: > 100 µM; TGI [46]: 90.7 µM; TGI [2]: > 100 µM; TGI [3]: > 100 µM; TGI [4]: > 100 µM; TGI [5]: > 100 µM; TGI [47]: > 100 µM; TGI [6]: > 100 µM; TGI [7]: > 100 µM; TGI [8]: > 100 µM; TGI [9]: > 100 µM; TGI [48]: > 100 µM; TGI [10]: > 100 µM; TGI [11]: > 100 µM; TGI [12]: > 100 µM; TGI [13]: 86.9 µM; TGI [14]: 57.4 µM; TGI [15]: 35.6 µM; TGI [16]: > 100 µM; TGI [17]: 33.7 µM; TGI [19]: > 100 µM; TGI [20]: > 100 µM; TGI [21]: > 100 µM; TGI [22]: > 100 µM; TGI [23]: > 100 µM; TGI [24]: 36.6 µM; TGI [25]: > 100 µM; TGI [26]: 29.9 µM; TGI [49]: 61.6 µM; TGI [27]: > 100 µM; TGI [28]: > 100 µM; TGI [29]: > 100 µM; TGI [30]: > 100 µM; TGI [31]: > 100 µM; TGI [32]: > 100 µM; TGI [33]: > 100 µM; TGI [34]: 52.6 µM; TGI [35]: 81.5 µM; TGI [36]: > 100 µM; TGI [37]: > 100 µM; TGI [53]: 46.3 µM; TGI [38]: 64.3 µM; TGI [39]: > 100 µM; TGI [54]: > 100 µM; TGI [40]: 54.2 µM; TGI [56]: 35.8 µM; TGI [41]: > 100 µM; TGI [42]: > 100 µM; TGI [43]: > 100 µM; TGI [58]: > 100 µM
